pKi: −log10 of the molar value. Each block holds one compound with its values, some of them ahead of it. Activity calls are given as the source filed them. The calls are words filed in the database; no cut-off is given here.
What was measured:
[1] = target: Microtubule-associated protein tau (Homo sapiens, UniProt P10636); experiment: Binding affinity to human Tau aggregates after 30 mins by Thioflavin-S-based fluorescence assay
[2] = target: Amyloid-beta precursor protein (Homo sapiens, UniProt P05067); experiment: Binding affinity to amyloid beta(1 to 42) aggregates after 30 mins by Thioflavin-S-based fluorescence assay
Chain of Amyloid-beta precursor protein (P05067 whole entry): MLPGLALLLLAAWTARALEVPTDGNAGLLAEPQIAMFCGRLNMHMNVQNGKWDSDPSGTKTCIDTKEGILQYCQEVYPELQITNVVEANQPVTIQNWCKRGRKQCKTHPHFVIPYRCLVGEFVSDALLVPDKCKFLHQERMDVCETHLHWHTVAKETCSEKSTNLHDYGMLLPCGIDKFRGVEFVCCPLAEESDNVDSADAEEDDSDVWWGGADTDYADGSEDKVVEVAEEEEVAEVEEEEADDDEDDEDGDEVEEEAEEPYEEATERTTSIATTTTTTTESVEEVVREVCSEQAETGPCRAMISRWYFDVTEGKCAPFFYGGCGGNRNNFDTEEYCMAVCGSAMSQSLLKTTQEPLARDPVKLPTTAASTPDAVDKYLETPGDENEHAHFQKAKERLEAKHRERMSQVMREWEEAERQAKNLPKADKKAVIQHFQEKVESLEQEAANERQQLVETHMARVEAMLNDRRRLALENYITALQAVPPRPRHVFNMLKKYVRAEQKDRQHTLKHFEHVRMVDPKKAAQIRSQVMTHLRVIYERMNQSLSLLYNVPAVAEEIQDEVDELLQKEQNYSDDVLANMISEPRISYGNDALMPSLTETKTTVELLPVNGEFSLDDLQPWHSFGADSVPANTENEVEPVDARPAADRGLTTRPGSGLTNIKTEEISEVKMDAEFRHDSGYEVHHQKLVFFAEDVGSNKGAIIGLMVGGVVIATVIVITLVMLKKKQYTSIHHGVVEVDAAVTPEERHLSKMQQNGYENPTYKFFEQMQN

Homo sapiens [3] = species on record: Homo sapiens; experiment: Selectivity ratio of Ki for amyloid beta(1 to 42) to Ki for human Tau
Homo sapiens [4] = species on record: Homo sapiens; experiment: Binding affinity to neurofibrillary tangles in entorhinal cortex of alzheimer disease patient after 10 mins by Thioflavin-S-based fluorescence microscopy; type: tissue-based
Brain [5] = experiment: Ratio of drug uptake in ddY mouse brain after 2 mins to drug uptake in ddY mouse brain after 30 mins; type: ADME, tissue-based; details: in vivo
Homo sapiens [6] = species on record: Homo sapiens; experiment: Selectivity ratio of Kd for amyloid beta(1 to 42) to Kd for human Tau
Blood [7] = experiment: Biodistribution in ddY mouse blood at 3.3 to 6.7 kBq, iv after 2 mins by gamma counting; type: ADME, organism-based; details: in vivo
Blood [8] = experiment: Biodistribution in ddY mouse blood at 3.3 to 6.7 kBq, iv after 10 mins by gamma counting; type: ADME, organism-based; details: in vivo
Blood [9] = experiment: Biodistribution in ddY mouse blood at 3.3 to 6.7 kBq, iv after 30 mins by gamma counting; type: ADME, organism-based; details: in vivo, 0.5 h
Blood [10] = experiment: Biodistribution in ddY mouse blood at 3.3 to 6.7 kBq, iv after 60 mins by gamma counting; type: ADME, organism-based; details: in vivo, 1 h
Liver [11] = experiment: Biodistribution in ddY mouse liver at 3.3 to 6.7 kBq, iv after 2 mins by gamma counting; type: ADME, organism-based; details: in vivo
Liver [12] = experiment: Biodistribution in ddY mouse liver at 3.3 to 6.7 kBq, iv after 10 mins by gamma counting; type: ADME, organism-based; details: in vivo
Liver [13] = experiment: Biodistribution in ddY mouse liver at 3.3 to 6.7 kBq, iv after 30 mins by gamma counting; type: ADME, organism-based; details: in vivo, 0.5 h
Liver [14] = experiment: Biodistribution in ddY mouse liver at 3.3 to 6.7 kBq, iv after 60 mins by gamma counting; type: ADME, organism-based; details: in vivo, 1 h
Kidney [15] = experiment: Biodistribution in ddY mouse kidney at 3.3 to 6.7 kBq, iv after 2 mins by gamma counting; type: ADME, organism-based; details: in vivo
Kidney [16] = experiment: Biodistribution in ddY mouse kidney at 3.3 to 6.7 kBq, iv after 10 mins by gamma counting; type: ADME, organism-based; details: in vivo
Kidney [17] = experiment: Biodistribution in ddY mouse kidney at 3.3 to 6.7 kBq, iv after 30 mins by gamma counting; type: ADME, organism-based; details: in vivo, 0.5 h
Kidney [18] = experiment: Biodistribution in ddY mouse kidney at 3.3 to 6.7 kBq, iv after 60 mins by gamma counting; type: ADME, organism-based; details: in vivo, 1 h
Intestine [19] = experiment: Biodistribution in ddY mouse intestine at 3.3 to 6.7 kBq, iv after 2 mins by gamma counting; type: ADME, organism-based; details: in vivo
Intestine [20] = experiment: Biodistribution in ddY mouse intestine at 3.3 to 6.7 kBq, iv after 10 mins by gamma counting; type: ADME, organism-based; details: in vivo
Intestine [21] = experiment: Biodistribution in ddY mouse intestine at 3.3 to 6.7 kBq, iv after 30 mins by gamma counting; type: ADME, organism-based; details: in vivo, 0.5 h
Intestine [22] = experiment: Biodistribution in ddY mouse intestine at 3.3 to 6.7 kBq, iv after 60 mins by gamma counting; type: ADME, organism-based; details: in vivo, 1 h
Spleen [23] = experiment: Biodistribution in ddY mouse spleen at 3.3 to 6.7 kBq, iv after 2 mins by gamma counting; type: ADME, organism-based; details: in vivo
Spleen [24] = experiment: Biodistribution in ddY mouse spleen at 3.3 to 6.7 kBq, iv after 10 mins by gamma counting; type: ADME, organism-based; details: in vivo
Spleen [25] = experiment: Biodistribution in ddY mouse spleen at 3.3 to 6.7 kBq, iv after 30 mins by gamma counting; type: ADME, organism-based; details: in vivo, 0.5 h
Spleen [26] = experiment: Biodistribution in ddY mouse spleen at 3.3 to 6.7 kBq, iv after 60 mins by gamma counting; type: ADME, organism-based; details: in vivo, 1 h
Pancreas [27] = experiment: Biodistribution in ddY mouse pancreas at 3.3 to 6.7 kBq, iv after 2 mins by gamma counting; type: ADME, organism-based; details: in vivo
Pancreas [28] = experiment: Biodistribution in ddY mouse pancreas at 3.3 to 6.7 kBq, iv after 10 mins by gamma counting; type: ADME, organism-based; details: in vivo
Pancreas [29] = experiment: Biodistribution in ddY mouse pancreas at 3.3 to 6.7 kBq, iv after 30 mins by gamma counting; type: ADME, organism-based; details: in vivo, 0.5 h
Pancreas [30] = experiment: Biodistribution in ddY mouse pancreas at 3.3 to 6.7 kBq, iv after 60 mins by gamma counting; type: ADME, organism-based; details: in vivo, 1 h
Heart [31] = experiment: Biodistribution in ddY mouse heart at 3.3 to 6.7 kBq, iv after 2 mins by gamma counting; type: ADME, organism-based; details: in vivo
Heart [32] = experiment: Biodistribution in ddY mouse heart at 3.3 to 6.7 kBq, iv after 10 mins by gamma counting; type: ADME, organism-based; details: in vivo
Heart [33] = experiment: Biodistribution in ddY mouse heart at 3.3 to 6.7 kBq, iv after 30 mins by gamma counting; type: ADME, organism-based; details: in vivo, 0.5 h
Heart [34] = experiment: Biodistribution in ddY mouse heart at 3.3 to 6.7 kBq, iv after 60 mins by gamma counting; type: ADME, organism-based; details: in vivo, 1 h
Stomach [35] = experiment: Biodistribution in ddY mouse stomach assessed per organ at 3.3 to 6.7 kBq, iv after 2 mins by gamma counting; type: ADME, organism-based; details: in vivo
Stomach [36] = experiment: Biodistribution in ddY mouse stomach assessed per organ at 3.3 to 6.7 kBq, iv after 10 mins by gamma counting; type: ADME, organism-based; details: in vivo
Stomach [37] = experiment: Biodistribution in ddY mouse stomach assessed per organ at 3.3 to 6.7 kBq, iv after 30 mins by gamma counting; type: ADME, organism-based; details: in vivo, 0.5 h
Stomach [38] = experiment: Biodistribution in ddY mouse stomach assessed per organ at 3.3 to 6.7 kBq, iv after 60 mins by gamma counting; type: ADME, organism-based; details: in vivo, 1 h
Brain [39] = experiment: Biodistribution in ddY mouse brain at 3.3 to 6.7 kBq, iv after 2 mins by gamma counting; type: ADME, organism-based; details: in vivo
Brain [40] = experiment: Biodistribution in ddY mouse brain at 3.3 to 6.7 kBq, iv after 10 mins by gamma counting; type: ADME, organism-based; details: in vivo
Brain [41] = experiment: Biodistribution in ddY mouse brain at 3.3 to 6.7 kBq, iv after 30 mins by gamma counting; type: ADME, organism-based; details: in vivo, 0.5 h
Brain [42] = experiment: Biodistribution in ddY mouse brain at 3.3 to 6.7 kBq, iv after 60 mins by gamma counting; type: ADME, organism-based; details: in vivo, 1 h

Chain of Microtubule-associated protein tau (P10636 whole entry): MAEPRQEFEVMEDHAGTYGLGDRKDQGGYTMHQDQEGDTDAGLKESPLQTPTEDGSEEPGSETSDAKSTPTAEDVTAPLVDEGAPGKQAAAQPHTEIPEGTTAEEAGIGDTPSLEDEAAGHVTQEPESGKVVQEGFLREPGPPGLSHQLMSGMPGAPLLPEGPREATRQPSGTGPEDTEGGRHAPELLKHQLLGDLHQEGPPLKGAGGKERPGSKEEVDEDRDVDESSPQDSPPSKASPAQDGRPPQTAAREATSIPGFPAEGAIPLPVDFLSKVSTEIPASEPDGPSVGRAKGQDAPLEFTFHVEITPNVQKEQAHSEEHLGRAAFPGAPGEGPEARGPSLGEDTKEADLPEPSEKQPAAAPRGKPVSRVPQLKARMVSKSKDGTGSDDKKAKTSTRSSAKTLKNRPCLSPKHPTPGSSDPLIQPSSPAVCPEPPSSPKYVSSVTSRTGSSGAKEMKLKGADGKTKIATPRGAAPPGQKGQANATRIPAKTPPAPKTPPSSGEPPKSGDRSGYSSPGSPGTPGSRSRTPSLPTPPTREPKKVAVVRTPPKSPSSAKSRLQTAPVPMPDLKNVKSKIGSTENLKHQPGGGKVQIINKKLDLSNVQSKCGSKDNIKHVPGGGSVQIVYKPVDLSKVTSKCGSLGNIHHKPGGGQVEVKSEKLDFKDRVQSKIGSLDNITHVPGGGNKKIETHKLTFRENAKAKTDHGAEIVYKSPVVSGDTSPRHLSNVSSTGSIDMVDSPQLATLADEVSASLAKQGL

SMILES: CN(C)c1ccc(/C=C2\Nc3ccc(I)cc3C2=O)cc1
pKi [1]: 7.77
pKi [2]: 7.51
Ratio Ki (Homo sapiens [3]): 1.77
Activity (Homo sapiens [4]): Active

SMILES: O=C1/C(=C/c2ccc(-c3cccc([125I])c3)o2)NC(=S)N1CCc1c[nH]cn1
Ratio (Brain [5]): 2.33

SMILES: CN(C)c1ccc(/N=N/c2nc3ccc(OCCOCCOCCF)cc3s2)cc1
Ratio (Homo sapiens [6]): 1.54

SMILES: CNc1ccc(C=C2C(=O)Nc3ccc(I)cc32)cc1
pKi [1]: 5.85
pKi [2]: 5.30
Ratio Ki (Homo sapiens [3]): 3.54

SMILES: CN(C)c1ccc(/C=C2\Nc3ccc([125I])cc3C2=O)cc1
Drug uptake (Blood [7]): 4.7 % ID/g
Drug uptake (Blood [8]): 3.76 % ID/g
Drug uptake (Blood [9]): 2.06 % ID/g
Drug uptake (Blood [10]): 2.23 % ID/g
Drug uptake (Liver [11]): 9.81 % ID/g
Drug uptake (Liver [12]): 11.29 % ID/g
Drug uptake (Liver [13]): 9.85 % ID/g
Drug uptake (Liver [14]): 8.9 % ID/g
Drug uptake (Kidney [15]): 11.93 % ID/g
Drug uptake (Kidney [16]): 16.57 % ID/g
Drug uptake (Kidney [17]): 11.38 % ID/g
Drug uptake (Kidney [18]): 7.55 % ID/g
Drug uptake (Intestine [19]): 2.13 % ID/g
Drug uptake (Intestine [20]): 3.17 % ID/g
Drug uptake (Intestine [21]): 7.05 % ID/g
Drug uptake (Intestine [22]): 10.7 % ID/g
Drug uptake (Spleen [23]): 3.2 % ID/g
Drug uptake (Spleen [24]): 4.46 % ID/g
Drug uptake (Spleen [25]): 4.08 % ID/g
Drug uptake (Spleen [26]): 2.17 % ID/g
Drug uptake (Pancreas [27]): 4.4 % ID/g
Drug uptake (Pancreas [28]): 2.54 % ID/g
Drug uptake (Pancreas [29]): 1.39 % ID/g
Drug uptake (Pancreas [30]): 0.94 % ID/g
Drug uptake (Heart [31]): 7.94 % ID/g
Drug uptake (Heart [32]): 3.42 % ID/g
Drug uptake (Heart [33]): 2.23 % ID/g
Drug uptake (Heart [34]): 2.11 % ID/g
Drug uptake (Stomach [35]): 0.96 %ID
Drug uptake (Stomach [36]): 1.67 %ID
Drug uptake (Stomach [37]): 2.1 %ID
Drug uptake (Stomach [38]): 3.8 %ID
Drug uptake (Brain [39]): 2.52 % ID/g
Drug uptake (Brain [40]): 1.4 % ID/g
Drug uptake (Brain [41]): 0.63 % ID/g
Drug uptake (Brain [42]): 0.36 % ID/g
Ratio (Brain [5]): 4

Now from value to compound:

Ratio (Brain [5]): < 2
SMILES: Nc1ccc(-c2ccc3cc(OCC[18F])ccc3n2)cc1

Ratio (Brain [5]): 1.23
SMILES: CN(C)c1ccc(/N=N/c2nc3ccc(OCCOCCOCC[18F])cc3s2)cc1

Reference: ChEMBL document CHEMBL2069290, “Synthesis and biological evaluation of novel oxindole derivatives for imaging neurofibrillary tangles in Alzheimer's disease” (Bioorg Med Chem Lett, 2012)
